Measured values taken from patent publication US11633380B2, “Use of trans-[tetrachlorobis(1H-indazole)ruthenate(III)] for the treatment of cancer” (Bold Therapeutics, Inc., priority 2016, dated 2023).

Key:
GRP78 [1] = experiment: GRP78 protein level by western blot in cell lines, unstressed or thapsigargin-stressed (Example 1); type: cell-based, human; details: IT-139 200 μM, 16 hours
Experimental: Example 1. All human primary and metastatic cell lines were maintained as described by ATCC. Cells were seeded in a 6 well plate prior to treatment with media alone (control), IT-139 (200 μM) alone, thapsigargin alone (300 nM, to induce cell stress) or IT-139 plus thapsigargin. Cell lysates were collected at 16 hours and were analyzed by western blot for anti-GRP78 antibody and normalized by GAPDH.

GRP78 mRNA [2] = experiment: Quantitative real-time PCR of GRP78 transcripts in cell lines (Example 2); type: cell-based, human; details: IT-139 200 μM, 24 hours
Experimental: Example 2. All human primary and metastatic cell lines were maintained as described by ATCC. Cells were seeded in a 6 well plate prior to treatment with media alone (control), IT-139 (200 μM) alone, thapsigargin alone (300 nM, to induce cell stress) or IT-139 plus thapsigargin. Cell lysates were collected at 24 hours and total RNA was extracted. Quantitative real-time PCR analysis of GRP78 transcripts normalized to GAPDH.

CT26 cells = experiment: CT26 subcutaneous syngeneic tumor model (Example 3); type: in vivo, mice; details: twice weekly, four doses; IT-139 30 mg/kg intravenously, RPM1-14 5 mg/kg intraperitoneally; through day 18
Experimental: Example 3. CT26 cells (1 million) were subcutaneously implanted in immunocompetent mice and allowed to grow until a palpable tumor was established (day 3). Groups of four mice per group were treated twice weekly with four total doses of either 1) saline, 2) IT-139 alone (KP1339, 30 mg/kg), 3) RPM1-14 (PD-1 antibody, 5 mg/kg), or 4) RPM1-14 and IT-139 (5 mg/kg and 30 mg/kg, respectively). IT-139 was administered intravenously and RPM1-14 was administered intraperitoneally. Administrations were made on the same day. Tumor volume was measured through day 18.

HCT116 cells = experiment: Electron microscopic evaluation of HCT116 cells (Example 4); type: cell-based, human; details: IT-139 200 μM, 24 hours, versus untreated cells
Experimental: Example 4. HCT116 cell line was seeded one day prior to treatment according to ATCC guidelines. 24 hours after treatment with IT-139 (200 μM), treated and untreated cells were fixed for electron microscopic evaluation.

Pol II promoter = experiment: ChIP assay, Polymerase II binding to Pol II promoter in HCT116 cells (Example 5); type: cell-based, human; details: 200 μM IT-139, 16 hours
Experimental: (§1) Example 5. Chromatin immunoprecipitation (ChIP) assay was performed to examine Polymerase II binding to Pol II and GRP78 promoter regions in stressed and unstressed cells with IT-139 treatment. HCT116 cells were grown to 80% confluence then treated with 1.5 μg/mL tunicamycin and 200 μM IT-139 or DMSO for 16 hours. Chromatin was cross-linked using formaldehyde. Cells were harvested with trypsin and isolated nuclei were sonicated to yield fragments between 200-1000 bp. Equal amounts of chromatin were incubated with anti-Pol II antibody overnight then pulled down with Staph A cells. Cross-linking was reversed and the DNA was purified using a GeneElute PCR cleanup kit from Sigma. Purified DNA and input samples were subjected to 30 cycles of PCR with primers amplifying promoter regions of Grp78 and Pol II. The products were run on a 4% agarose gel and visualized with ethidium bromide staining. […] Strikingly, IT-139 dropped Polymerase II binding to the Grp78 promoter to zero in both non-stressed and Tu-stressed cells.

Grp78 promoter = experiment: ChIP assay, Polymerase II binding to Grp78 promoter in HCT116 cells (Example 5); type: cell-based, human; details: 200 μM IT-139, 16 hours
Experimental: as §1

GRP78 [3] = experiment: Immunohistochemical analysis of GRP78 in HT-29 xenograft tumors (Example 6); type: in vivo; details: IT-139 30 mg/kg (q4d), versus strong immunostaining in saline treated tumors
Experimental: Example 6. Immunohistochemical analysis was performed to analyze the expression of GRP78 in HT-29 xenograft tumors treated with IT-139 at 30 mg/kg (q4d) in comparison to saline treated tumors.

GRP78 [4] = experiment: GRP78 levels by western blot in normal embryonic kidney 293T cells (Example 7); type: cell-based, human
Experimental: Example 7. Normal human embryonic kidney 293T cells were either non-stressed (treated with normal media) or stressed (treated with 300 nM EndRet stress & GRP78 inducer Thapsigargin). Cell cultures were either treated with no drug (control) or 200 μM IT-139. GRP78 levels assayed by western blot; β-actin is loading control.

GRP78 mRNA [5] = experiment: Northern blot of GRP78 mRNA in LnCaP-FGC cells (Example 8); type: cell-based, human; details: untreated or 300 nM thapsigargin, indicated concentrations of IT-139
Experimental: Example 8. Prostate cancer LnCaP-FGC cells were untreated (DMSO only control) or treated with 300 nM thapsigargin (Tg). Cells were co-incubated with the indicated concentrations of IT-139 and Northern blot analysis was performed on cell lysates. β-actin is the loading control.

HCT116 = experiment: Mitochondrial potential, JC-1 flow cytometry, HCT116 (Example 9); type: cell-based, human; details: HCT116, 50 μM IT-139, 24 h
Experimental: (§2) Example 9. All human primary and metastatic cell lines were maintained as described by ATCC. All cell lines (HCT116, HT-29, LNCaP, A549 and A375) were seeded in a 6 well plate 24 hours prior to treatment with IT-139 alone. All cell lines were treated with 30 uM, 50 uM, 100 uM and 200 uM with the following exceptions: treatment with 30 uM and 200 uM were omitted for HCT116 and HT29 cell lines respectively. After 24 h incubation with the drug, cells were trypsinized and re-suspended in warm PBS and stained with the JC-1 dye for 30 min at 37 C in the dark. The cells were then washed and re-suspended in warm PBS. The fluorescence of the JC-1 dye was measured by flow cytometry analysis by exciting the dye at 488 nm and detecting the JC-1 monomer through its emission at 530 nm with aggregates of JC-1 being measured at 580 nm. All cell lines treated with Antimycin A at 50 uM as positive control.

HT29 = experiment: Mitochondrial potential, JC-1 flow cytometry, HT29 (Example 9); type: cell-based, human; details: HT29, 30 μM IT-139, 24 h
Experimental: as §2

LNCaP = experiment: Mitochondrial potential, JC-1 flow cytometry, LNCaP (Example 9); type: cell-based, human; details: prostate (LNCaP), 30-200 uM IT-139, 24 h
Experimental: as §2

A549 = experiment: Mitochondrial potential, JC-1 flow cytometry, A549 (Example 9); type: cell-based, human; details: lung (A549), 30-200 uM IT-139, 24 h
Experimental: as §2

A375 = experiment: Mitochondrial potential, JC-1 flow cytometry, A375 (Example 9); type: cell-based, human; details: melanoma (A375), 30-200 uM IT-139, 24 h
Experimental: as §2

[6] = system: normal peripheral blood mononuclear cells (PBMCs); experiment: Cell viability, MiaPaca2 cells co-cultured with normal PBMCs (Example 10); type: cell-based; details: IT-139 50, 100 and 200 μM, 24 h, co-culture with normal PBMCs
Experimental: Example 10. […] cancer cell line, MiaPaca2, was maintained as described by ATCC. […] […] PBMCs were activated using 6000 IU of IL-2 for 24 h.

MiaPaca2 cells = experiment: Cell death of MiaPaca2 cells co-cultured with IL-2 activated PBMCs (Example 10); type: cell-based; details: pre-treated with IT-139 100 μM, co-cultured with PBMCs activated with 6000 IU IL-2 for 24 h
Experimental: Example 10. […] cancer cell line, MiaPaca2, was maintained as described by ATCC. […] MiaPaca2 cells were either untreated or pre-treated with IT-139 (100 μM) and co-cultured with IL-2 activated PBMCs at varying doses. PBMCs were activated using 6000 IU of IL-2 for 24 h.

GRP78 [7] = experiment: GRP78 expression in ASPC20 cells, order of dosing thapsigargin and IT-139 (Example 11); type: cell-based; details: 30 hours
Experimental: FIG. 12 depicts expression of GRP78 protein levels treated with DMSO; 150 μM IT-139; 1 μM Thapsigargin (Tg); simultaneous treatment of 150 μM IT-139 and 1 μM Tg; 1 μM Tg treated for 6 hours followed by 150 μM IT-139 for 24 hours; and […] IT-139 for 24 hours followed by […] Tg treatment for 24 hours for lanes 1-5, respectively. Lanes 6-12 are the same treatments incubated for a further 24 hours.
Example 11. […] In vitro ASPC20 cells are treated for 48 hours with DMSO (control), 150 μM IT-139, 5 μM gemcitabine, simultaneous 150 μM IT-139 and 5 μM gemcitabine, 5 μM gemcitabine for 24 hours followed by 150 μM IT-139, or 150 μM IT-139 followed by 24 hrs 5 μM gemcitabine. Cells are harvested and counted by trypan blue to calculate the number of dead cells versus viable cells. […] PANC-1 cells are treated in vitro for 48 hours with DMSO (control), 150 μM IT-139, 5 μM gemcitabine, simultaneous 150 μM IT-139 and 5 μM gemcitabine, 5 μM gemcitabine for 24 hours followed by 150 μM IT-139, and 150 μM IT-139 followed by 24 hours 5 μM gemcitabine.

[8] = system: UPR (XBP-1 spliced form, ATF6, eIF2a); experiment: Effect on other arms of the UPR; type: cell-based
[9] = system: GRP78 promoter fragment (−169 to −29; contains 3 ERSEs); experiment: GRP78 promoter fragment luciferase reporter; type: cell-based
tumor types = experiment: Preclinical anti-tumor and combination studies
[10] = stressed cells (thapsigargin 300 nM)
[11] = Tu-stressed HCT116 cells (1.5 μg/mL tunicamycin)

SMILES: [Cl][Ru-]([Cl])([Cl])[Cl].[Na+].c1ccc2[nH]ncc2c1.c1ccc2[nH]ncc2c1 [IT-139, sodium trans-[tetrachlorobis(1H-indazole)ruthenate(III)]]
- effect on GRP78 protein (western blot, normalized by GAPDH) (GRP78 [1]; [10]): decreased the amount of GRP78
- effect on GRP78 protein (western blot, normalized by GAPDH) (GRP78 [1]; unstressed cells): little to no effect
- effect on GRP78 mRNA expression (qRT-PCR, normalized to GAPDH) (GRP78 mRNA [2]; [10]): decreased the amount of GRP78 mRNA expression
- effect on grp78 mRNA levels (qRT-PCR, normalized to GAPDH) (GRP78 mRNA [2]; unstressed cells): little impact
- anti-tumor activity (tumor volume) (CT26 cells): demonstrated anti-tumor activity
- cell morphology by electron microscopy (HCT116 cells): significant vacuolization, ER expansion and disorganization of intracellular organelles
- Polymerase II binding to the Pol II promoter, reduced to (Pol II promoter; [11]): 40%
- Polymerase II binding to the Pol II promoter (Pol II promoter; non-stressed HCT116 cells): minimal effect
- Polymerase II binding to the Grp78 promoter, dropped to (Grp78 promoter; [11]): zero
- Polymerase II binding to the Grp78 promoter, dropped to (Grp78 promoter; non-stressed HCT116 cells): zero
- GRP78 immunostaining of tumors (GRP78 [3]): very weak staining
- effect on basal GRP78 levels (GRP78 [4]; non-stressed normal cells): does not effect the basal GRP78 levels
- effect on GRP78 up-regulation due to stress (GRP78 [4]; stressed normal cells): does not effect GRP78 up-regulation due to stress
- suppression of GRP78 at the transcriptional level (Northern blot, normalized against β-actin) (GRP78 mRNA [5]): dose dependent manner
- mitochondrial potential (JC-1) (HCT116): increased loss of mitochondrial potential
- mitochondrial potential (JC-1) (HT29): increased loss of mitochondrial potential
- mitochondrial potential (JC-1) (LNCaP): increase in mitochondrial depolarization at high concentrations
- mitochondrial potential (JC-1) (A549): increase in mitochondrial depolarization at high concentrations
- mitochondrial potential (JC-1) (A375): increase in mitochondrial depolarization at high concentrations
- cell viability [6]: did not show any effect upon cell viability
- cell death in MiaPaca2 cells (MiaPaca2 cells): increased cell death
- effect of order of dosing with thapsigargin (Tg) on GRP78 expression (GRP78 [7]): affects levels of GRP78 expression
- effect on other arms of the UPR (induction XBP-1 spliced form; induction, processing and nuclear import of ATF6; phosphorylation of eIF2a) [8]: does not block other arms of the UPR
- stress-induction of GRP78 promoter fragment linked to luciferase reporter gene [9]: suppress stress-induction
- synergy in combination with other anti-cancer drugs (tumor types; all different classes of anti-cancer drugs tested to date): marked synergy
- anti-tumor activity in preclinical studies (tumor types; including tumor types resistant to standard anti-cancer agents): activity against a broad range of tumor types
